Test results reported in US20090118286A1, “Heterobicyclic Acrylamides” (Bayer Cropscience AG, priority 2005, published 2009).

Assay: log P determination by HPLC (EEC Directive 79/831 Annex V.A8, gradient method)
Format: physicochemical

Row | SMILES | Physical data (logP) | Physical data: logP | further results
1 | C[C@@H](C[S+](C)[O-])NC(=O)/C=C/c1c(-c2ccc(Cl)cc2Cl)nc2sc(C(F)(F)F)nn12 (stereo partly drawn) [Example 0002, (2E)-3-[6-(2,4-Dichlorophenyl)-2-(trifluoromethyl)imidazo[2,1-b][1,3,4]thiadiazol-5-yl]-N-[(1S)-1-methyl-2-(methylsulphinyl)ethyl]acrylamide] | – | – | chromatographic logP (HPLC gradient method, acetonitrile/0.1% strength aqueous phosphoric acid or formic acid, preparation examples, read-out: log P): 2.48
2 | CC(COc1ccccc1)NC(=O)/C=C/c1c(-c2ccc(F)cc2)nc2sc(C(F)(F)F)nn12 (stereo not shown) [Example 0336] | – | – | Physical data: log P: 4.13
3 | O=C(O)/C=C/c1c(-c2ccc(F)cc2Cl)nc2sc(C(F)(F)C(F)(F)C(F)(F)F)nn12 [VA135] | 3.75 | – | –
4 | CC(ONC(=O)/C=C/c1c(-c2ccc(Cl)cc2)nc2sc(C(F)(F)F)nn12)c1ccccc1 (stereo not shown) [Example 0062] | 4.18 | – | –
5 | Cc1ccccc1-c1nc2sc(C(F)(F)F)nn2c1/C=C/C(=O)NC1CCC1 [Example 0234] | – | – | Physical data: log P: 3.41
6 | O=C(/C=C/c1c(-c2ccccc2Cl)nc2sc(-c3ccc(C(F)(F)F)cc3)nn12)NCC(F)(F)C(F)(F)F [Example 0858] | – | 4.62 | –
7 | CCC(C)NC(=O)/C=C/c1c(-c2ccccc2Cl)nc2scc(C)n12 (stereo not shown) [Example 0891] | – | 2.35 | –
8 | Cc1ccccc1-c1nc2sc(C(F)(F)F)nn2c1/C=C/C(=O)NC(C)COc1ccccc1 (stereo not shown) [Example 0265] | – | – | Physical data: log P: 4.18
9 | COCc1nn2c(/C=C/C(=O)NCC(C)(C)C)c(-c3ccccc3Cl)nc2s1 [Example 0819] | – | 3.05 | –
10 | O=C(/C=C/c1c(-c2ccc(F)cc2)nc2sc(C(F)(F)F)nn12)NC1CC1 [Example 0304] | – | – | Physical data: log P: 2.95
11 | Cc1csc2nc(-c3ccccc3Cl)c(/C=C/C(=O)NC(C(C)C)C(F)(F)F)n12 (stereo not shown) [Example 0884] | – | 3.11 | –
12 | Cc1cn2c(/C=C/C(=O)Nc3ccc(Cl)cc3)c(-c3ccccc3Cl)nc2s1 [Example 0877] | – | 3.57 | –
13 | CC(C)CCNC(=O)/C=C/c1c(-c2ccccc2Cl)nc2sc(C(C)(C)C)nn12 [Example 0798] | – | 4.11 | –
14 | Cc1cn2c(/C=C/C(=O)NC3CC3)c(-c3ccccc3Cl)nc2s1 [Example 0873] | – | 2.02 | –
15 | O=C(O)/C=C/c1c(-c2ccccc2Cl)nc2scnn12 [VA112] | 1.84 | – | –
16 | O=C(O)/C=C/c1c(-c2ccccc2Cl)nc2sc(C(F)(F)C(F)(F)F)nn12 [VA113] | 3.19 | – | –
17 | O=Cc1c(-c2ccc(Cl)nc2)nc2sc(C(F)(F)F)nn12 [IVA123] | 2.54 | – | –
18 | O=C(/C=C/c1c(-c2ccccc2Cl)nc2sc(-c3ccc(C(F)(F)F)cc3)nn12)Nc1ccc(OC(F)(F)F)cc1 [Example 0856] | – | 5.47 | –

Further lines, with some results ahead:

Row | Physical data (logP) | Physical data: logP | SMILES | further results
19 | 3.85 | – | O=C(/C=C/c1c(-c2cccc(Cl)c2)nc2sc(C(F)(F)F)nn12)NC1CCC1 [Example 0083] | –
20 | – | 4.12 | CC(C)(C)c1nn2c(/C=C/C(=O)NC3CCCC3)c(-c3ccccc3Cl)nc2s1 [Example 0809] | –
21 | 2.8 | – | CC(NC(=O)/C=C/c1c(-c2cccc(Cl)c2)nc2sc(C(F)(F)F)nn12)c1cccnc1 (stereo not shown) [Example 0124] | –
22 | – | 3.55 | COc1ccc(-c2nc3sc(C(F)(F)F)nn3c2/C=C/C(=O)NC2CCCCC2)cc1OC [Example 0659] | –
23 | – | 3.07 | CC(C)(C)c1nn2c(/C=C/C(=O)NC3CC3)c(-c3ccccc3Cl)nc2s1 [Example 0807] | –
24 | 4.63 | – | CC(C)CN(C)C(=O)/C=C/c1c(-c2cccc(Cl)c2)nc2sc(C(F)(F)F)nn12 [Example 0138] | –
25 | 4.23 | – | CC(ONC(=O)/C=C/c1c(-c2cccc(Cl)c2)nc2sc(C(F)(F)F)nn12)c1ccccc1 (stereo not shown) [Example 0132] | –
26 | – | 3.79 | CC(C)(C)c1nn2c(/C=C/C(=O)NC3CCCCC3)c(-c3ccccc3Cl)nc2s1 [Example 0810] | –
27 | – | 4.76 | O=C(/C=C/c1c(-c2ccccc2Cl)nc2sc(-c3ccc(C(F)(F)F)cc3)nn12)NC1CCCCC1 [Example 0854] | –
28 | – | 4.10 | C[Si](C)(C)CNC(=O)/C=C/c1c(-c2ccc(F)cc2Cl)nc2sc(C(F)(F)F)nn12 [Example 0914] | –
